Experimental data: patent publication US20130133650A1, “GAS-BASED TREATMENT FOR INFECTIVE DISEASE” (priority 2010, published 2013)

Tested on: M. tuberculosis H37Rv

| Molecule | effect on viability / lethality (words, FIG. 1) |
| --- | --- |
| [HH] [hydrogen] | as effective as Bioblend |
| Carbon dioxide | only a slight lethal effect |
